Data: ChEMBL document CHEMBL5678816, “A Next-Generation TRK Kinase Inhibitor Overcomes Acquired Resistance to Prior TRK Kinase Inhibition in Patients with TRK Fusion-Positive Solid Tumors” (Cancer Discov, 2017)
Active and inactive are the calls of the source. The rule behind the calls is not given here.

Legend:
BT-549 = assay: Inhibition of cell proliferation in human BT-549 cells upto 10 umol/L incubated for 72 hrs by DAPI staining based analysis; format: functional; settings: dose <= 10.0 µmol/L
[1] = molecular target: Serine/threonine-protein kinase 10 (Homo sapiens) (UniProt O94804); assay: Inhibition of LOK (unknown origin) at 1 uM in presence of ATP relative to control; values are per cent of control
SCC-25 = assay: Inhibition of cell proliferation in human SCC-25 cells upto 10 umol/L incubated for 72 hrs by DAPI staining based analysis; format: functional; settings: dose <= 10.0 µmol/L
NIH3T3 = assay: Antitumor activity against mouse NIH3T3 cells harboring extracellular domain deleted TRKA implanted in nu/nu NCr mouse assessed as inhibition of tumor growth at 30 to 300 mg/kg, po administered twice daily for 10 days; format: functional, organism-based; settings: dose 30-300 mg/kg, time 10.0 day
[2] = molecular target: Ephrin type-A receptor 4 (Homo sapiens) (UniProt P54764); assay: Inhibition of EphA4 (unknown origin) at 1 uM in presence of ATP relative to control; values are per cent of control
SW579 = assay: Inhibition of cell proliferation in human SW579 cells upto 10 umol/L incubated for 72 hrs by DAPI staining based analysis; format: functional; settings: dose <= 10.0 µmol/L
[3] = molecular target: Protein kinase C epsilon type (Homo sapiens) (UniProt Q02156); assay: Inhibition of PKCepsilon (unknown origin) at 1 uM in presence of ATP relative to control; values are per cent of control
[4] = molecular target: Cytoplasmic tyrosine-protein kinase BMX (Homo sapiens) (UniProt P51813); assay: Inhibition of Bmx (unknown origin) at 1 uM in presence of ATP relative to control
[5] = molecular target: Calcium/calmodulin-dependent protein kinase type IV (Homo sapiens) (UniProt Q16566); assay: Inhibition of CAMK4 (unknown origin) at 1 uM in presence of ATP relative to control; values are per cent of control
[6] = molecular target: Serine/threonine-protein kinase 4 (Homo sapiens) (UniProt Q13043); assay: Inhibition of MST1 (unknown origin) at 1 uM in presence of ATP relative to control; values are per cent of control
[7] = molecular target: Mitogen-activated protein kinase kinase kinase 9 (Homo sapiens) (UniProt P80192); assay: Inhibition of MLK1 (unknown origin) at 1 uM in presence of ATP relative to control; values are per cent of control
KPL-1 = assay: Inhibition of cell proliferation in human KPL-1 cells upto 10 umol/L incubated for 72 hrs by DAPI staining based analysis; format: functional; settings: dose <= 10.0 µmol/L
[8] = molecular target: Serine/threonine-protein kinase SIK1 (Homo sapiens) (UniProt P57059); assay: Inhibition of SIK (unknown origin) at 1 uM in presence of ATP relative to control; values are per cent of control
[9] = molecular target: Serine/threonine-protein kinase PLK3 (Homo sapiens) (UniProt Q9H4B4); assay: Inhibition of Plk3 (unknown origin) at 1 uM in presence of ATP relative to control; values are per cent of control
[10] = molecular target: Rho-associated protein kinase 1 (Homo sapiens) (UniProt Q13464); assay: Inhibition of ROCK-I (unknown origin) at 1 uM in presence of ATP relative to control; values are per cent of control
[11] = molecular target: Serine/threonine-protein kinase Nek6 (Homo sapiens) (UniProt Q9HC98); assay: Inhibition of NEK6 (unknown origin) at 1 uM in presence of ATP relative to control; values are per cent of control
[12] = molecular target: Serine/threonine-protein kinase PLK1 (Homo sapiens) (UniProt P53350); assay: Inhibition of Plk1 (unknown origin) at 1 uM in presence of ATP relative to control; values are per cent of control
[13] = molecular target: Ephrin type-A receptor 3 (Homo sapiens) (UniProt P29320); assay: Inhibition of EphA3 (unknown origin) at 1 uM in presence of ATP relative to control; values are per cent of control
[14] = Oral bioavailability in monkey at 10 mg/kg administered as 20% hydroxypropyl-beta-cyclodextrin formulation by LC-MS analysis; format: ADME, organism-based, Macaca mulatta; settings: rhesus monkey, in vivo
[15] = molecular target: Serine/threonine-protein kinase WNK2 (Homo sapiens) (UniProt Q9Y3S1); assay: Inhibition of WNK2 (unknown origin) at 1 uM in presence of ATP relative to control; values are per cent of control
SCaBER = assay: Inhibition of cell proliferation in human SCaBER cells upto 10 umol/L incubated for 72 hrs by DAPI staining based analysis; format: functional; settings: dose <= 10.0 µmol/L
[16] = molecular target: Serine/threonine-protein kinase 33 (Homo sapiens) (UniProt Q9BYT3); assay: Inhibition of STK33 (unknown origin) at 1 uM in presence of ATP relative to control; values are per cent of control
[17] = molecular target: Serine/threonine-protein kinase PAK 4 (Homo sapiens) (UniProt O96013); assay: Inhibition of PAK4 (unknown origin) at 1 uM in presence of ATP relative to control; values are per cent of control
DK-MG = assay: Inhibition of cell proliferation in human DK-MG cells upto 10 umol/L incubated for 72 hrs by DAPI staining based analysis; format: functional; settings: dose <= 10.0 µmol/L
T47D = assay: Inhibition of cell proliferation in human T47D cells upto 10 umol/L incubated for 72 hrs by DAPI staining based analysis; format: functional; settings: dose <= 10.0 µmol/L
[18] = Cmin in adult patient with recurrent LMNA-NTRK1 rearranged colorectal cancer at 100 mg administered twice a day as powder-in-capsule or liquid formulation for 22 day and measured 10 hrs post dose by LC-MS/MS analysis; format: ADME; settings: human, in vivo, po, read-out: Cmin
[19] = Cmin in pediatric patient with recurrent ETV6-NTRK3-rearranged infantile fibrosarcoma at 20 mg administered twice a day as liquid formulation for 1 day and measured 12 hrs post dose by LC-MS/MS analysis; format: ADME; settings: human, in vivo, read-out: Cmin
[20] = molecular target: MAP kinase-activated protein kinase 3 (Homo sapiens) (UniProt Q16644); assay: Inhibition of MAPKAP-K3 (unknown origin) at 1 uM in presence of ATP relative to control; values are per cent of control
SK-BR-3 = assay: Inhibition of cell proliferation in human SK-BR-3 cells upto 10 umol/L incubated for 72 hrs by DAPI staining based analysis; format: functional; settings: dose <= 10.0 µmol/L
[21] = molecular target: Tyrosine-protein kinase Fes/Fps (Homo sapiens) (UniProt P07332); assay: Inhibition of Fes (unknown origin) at 1 uM in presence of ATP relative to control; values are per cent of control

Rho-associated protein kinase 1 (Homo sapiens), sequence (Q13464 2-1354 limits assumed): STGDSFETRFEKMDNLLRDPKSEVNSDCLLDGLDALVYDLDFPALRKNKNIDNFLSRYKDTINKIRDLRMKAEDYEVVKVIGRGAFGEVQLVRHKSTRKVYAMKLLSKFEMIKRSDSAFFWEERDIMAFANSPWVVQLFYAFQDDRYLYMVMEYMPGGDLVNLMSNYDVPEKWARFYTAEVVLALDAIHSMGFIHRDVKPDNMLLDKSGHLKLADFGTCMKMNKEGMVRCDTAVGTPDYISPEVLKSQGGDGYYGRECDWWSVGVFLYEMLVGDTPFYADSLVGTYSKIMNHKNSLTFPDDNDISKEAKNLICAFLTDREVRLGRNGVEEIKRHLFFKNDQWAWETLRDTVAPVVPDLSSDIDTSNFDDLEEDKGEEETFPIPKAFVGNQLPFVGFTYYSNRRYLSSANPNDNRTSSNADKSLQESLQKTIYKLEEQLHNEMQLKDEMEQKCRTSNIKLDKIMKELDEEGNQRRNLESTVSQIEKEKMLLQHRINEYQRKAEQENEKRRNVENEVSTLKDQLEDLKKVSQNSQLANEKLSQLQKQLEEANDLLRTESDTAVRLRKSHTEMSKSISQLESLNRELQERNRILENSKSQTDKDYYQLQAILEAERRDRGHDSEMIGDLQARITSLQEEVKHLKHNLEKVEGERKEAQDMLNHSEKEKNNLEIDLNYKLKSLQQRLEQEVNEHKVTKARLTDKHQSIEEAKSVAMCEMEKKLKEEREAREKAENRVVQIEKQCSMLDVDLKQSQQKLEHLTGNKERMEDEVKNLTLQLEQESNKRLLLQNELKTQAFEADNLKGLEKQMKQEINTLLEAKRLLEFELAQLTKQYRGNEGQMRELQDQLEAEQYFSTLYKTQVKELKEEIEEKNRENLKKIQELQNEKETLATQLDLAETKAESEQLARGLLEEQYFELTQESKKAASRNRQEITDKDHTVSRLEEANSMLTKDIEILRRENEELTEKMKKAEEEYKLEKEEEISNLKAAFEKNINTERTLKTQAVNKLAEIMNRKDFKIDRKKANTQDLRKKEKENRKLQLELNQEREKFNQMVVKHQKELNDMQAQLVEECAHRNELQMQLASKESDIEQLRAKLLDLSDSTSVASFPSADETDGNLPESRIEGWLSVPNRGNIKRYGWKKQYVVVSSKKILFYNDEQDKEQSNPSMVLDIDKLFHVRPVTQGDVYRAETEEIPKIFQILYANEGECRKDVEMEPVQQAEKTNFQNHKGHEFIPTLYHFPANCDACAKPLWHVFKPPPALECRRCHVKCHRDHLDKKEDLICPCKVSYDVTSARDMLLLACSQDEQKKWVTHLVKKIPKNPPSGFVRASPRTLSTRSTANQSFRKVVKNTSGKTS
MAP kinase-activated protein kinase 3 (Homo sapiens), sequence (Q16644 whole entry, looked up): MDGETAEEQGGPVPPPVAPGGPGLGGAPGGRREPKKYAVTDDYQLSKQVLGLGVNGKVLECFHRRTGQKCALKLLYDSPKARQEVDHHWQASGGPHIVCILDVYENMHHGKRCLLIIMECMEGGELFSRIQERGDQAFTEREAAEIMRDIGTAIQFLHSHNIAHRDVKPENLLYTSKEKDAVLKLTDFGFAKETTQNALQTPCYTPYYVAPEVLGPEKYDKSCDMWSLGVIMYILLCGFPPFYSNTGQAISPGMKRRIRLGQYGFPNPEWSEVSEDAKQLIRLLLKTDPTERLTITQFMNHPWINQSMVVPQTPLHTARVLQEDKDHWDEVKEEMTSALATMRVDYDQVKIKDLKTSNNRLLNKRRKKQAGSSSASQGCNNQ
Serine/threonine-protein kinase WNK2 (Homo sapiens), sequence (Q9Y3S1 whole entry): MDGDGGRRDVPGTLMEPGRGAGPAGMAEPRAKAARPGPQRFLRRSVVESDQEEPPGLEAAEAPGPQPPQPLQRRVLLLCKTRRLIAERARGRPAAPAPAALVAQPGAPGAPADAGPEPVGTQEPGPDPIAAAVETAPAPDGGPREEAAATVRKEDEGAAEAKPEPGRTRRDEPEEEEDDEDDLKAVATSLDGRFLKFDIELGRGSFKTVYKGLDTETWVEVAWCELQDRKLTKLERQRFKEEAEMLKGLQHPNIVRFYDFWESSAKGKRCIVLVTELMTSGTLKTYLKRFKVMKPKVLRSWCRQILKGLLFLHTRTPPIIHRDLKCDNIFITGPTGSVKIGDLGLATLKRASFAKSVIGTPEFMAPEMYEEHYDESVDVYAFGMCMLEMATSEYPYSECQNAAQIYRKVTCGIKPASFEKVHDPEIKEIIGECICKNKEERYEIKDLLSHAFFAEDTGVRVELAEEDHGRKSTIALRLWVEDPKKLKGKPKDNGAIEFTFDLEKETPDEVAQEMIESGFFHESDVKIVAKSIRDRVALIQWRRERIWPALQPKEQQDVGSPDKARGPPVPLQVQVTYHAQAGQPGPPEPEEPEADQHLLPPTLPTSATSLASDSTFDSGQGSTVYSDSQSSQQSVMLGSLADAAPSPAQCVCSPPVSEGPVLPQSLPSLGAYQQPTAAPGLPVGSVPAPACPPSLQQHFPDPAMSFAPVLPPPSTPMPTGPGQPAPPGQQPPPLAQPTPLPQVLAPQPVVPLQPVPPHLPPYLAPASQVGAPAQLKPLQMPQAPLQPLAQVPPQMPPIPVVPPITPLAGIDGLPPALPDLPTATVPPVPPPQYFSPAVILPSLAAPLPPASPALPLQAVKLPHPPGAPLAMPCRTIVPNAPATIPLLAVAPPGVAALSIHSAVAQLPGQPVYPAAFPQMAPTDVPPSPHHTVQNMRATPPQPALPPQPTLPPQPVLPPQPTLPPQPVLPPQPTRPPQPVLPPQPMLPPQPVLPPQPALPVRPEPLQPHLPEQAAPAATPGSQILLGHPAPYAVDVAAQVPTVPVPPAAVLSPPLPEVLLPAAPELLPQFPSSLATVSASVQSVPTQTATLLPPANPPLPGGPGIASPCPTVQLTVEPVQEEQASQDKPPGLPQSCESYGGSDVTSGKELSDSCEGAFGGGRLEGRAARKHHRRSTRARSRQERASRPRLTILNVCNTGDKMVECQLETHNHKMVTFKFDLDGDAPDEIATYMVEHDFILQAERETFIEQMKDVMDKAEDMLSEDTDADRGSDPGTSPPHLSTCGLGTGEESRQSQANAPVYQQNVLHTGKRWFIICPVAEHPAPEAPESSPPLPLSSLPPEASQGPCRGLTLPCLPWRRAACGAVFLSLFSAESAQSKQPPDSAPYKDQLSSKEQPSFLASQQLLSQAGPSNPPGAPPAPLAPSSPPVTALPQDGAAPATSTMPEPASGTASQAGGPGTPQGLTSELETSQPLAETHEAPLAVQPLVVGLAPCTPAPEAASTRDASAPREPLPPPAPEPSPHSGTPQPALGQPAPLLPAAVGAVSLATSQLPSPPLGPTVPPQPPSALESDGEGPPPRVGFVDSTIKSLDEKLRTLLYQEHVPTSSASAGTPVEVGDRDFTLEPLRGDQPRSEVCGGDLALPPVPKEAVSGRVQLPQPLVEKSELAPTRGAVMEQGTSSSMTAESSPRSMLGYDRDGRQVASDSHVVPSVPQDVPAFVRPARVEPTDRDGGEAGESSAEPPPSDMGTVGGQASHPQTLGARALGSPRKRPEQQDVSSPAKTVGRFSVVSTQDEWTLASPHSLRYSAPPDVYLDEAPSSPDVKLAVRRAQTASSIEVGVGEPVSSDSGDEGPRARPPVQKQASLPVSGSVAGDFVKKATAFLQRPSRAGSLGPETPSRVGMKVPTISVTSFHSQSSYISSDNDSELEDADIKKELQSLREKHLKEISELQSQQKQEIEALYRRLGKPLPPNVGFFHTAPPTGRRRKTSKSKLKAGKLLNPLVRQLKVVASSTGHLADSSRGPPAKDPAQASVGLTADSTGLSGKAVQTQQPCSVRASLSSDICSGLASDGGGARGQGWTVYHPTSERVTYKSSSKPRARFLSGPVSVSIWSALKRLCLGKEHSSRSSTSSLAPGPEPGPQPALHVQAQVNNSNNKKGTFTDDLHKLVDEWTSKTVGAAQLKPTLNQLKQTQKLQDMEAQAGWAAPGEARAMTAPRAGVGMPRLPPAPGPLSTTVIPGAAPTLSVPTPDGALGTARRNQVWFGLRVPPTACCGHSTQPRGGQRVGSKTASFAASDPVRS
Ephrin type-A receptor 4 (Homo sapiens), sequence (P54764 whole entry): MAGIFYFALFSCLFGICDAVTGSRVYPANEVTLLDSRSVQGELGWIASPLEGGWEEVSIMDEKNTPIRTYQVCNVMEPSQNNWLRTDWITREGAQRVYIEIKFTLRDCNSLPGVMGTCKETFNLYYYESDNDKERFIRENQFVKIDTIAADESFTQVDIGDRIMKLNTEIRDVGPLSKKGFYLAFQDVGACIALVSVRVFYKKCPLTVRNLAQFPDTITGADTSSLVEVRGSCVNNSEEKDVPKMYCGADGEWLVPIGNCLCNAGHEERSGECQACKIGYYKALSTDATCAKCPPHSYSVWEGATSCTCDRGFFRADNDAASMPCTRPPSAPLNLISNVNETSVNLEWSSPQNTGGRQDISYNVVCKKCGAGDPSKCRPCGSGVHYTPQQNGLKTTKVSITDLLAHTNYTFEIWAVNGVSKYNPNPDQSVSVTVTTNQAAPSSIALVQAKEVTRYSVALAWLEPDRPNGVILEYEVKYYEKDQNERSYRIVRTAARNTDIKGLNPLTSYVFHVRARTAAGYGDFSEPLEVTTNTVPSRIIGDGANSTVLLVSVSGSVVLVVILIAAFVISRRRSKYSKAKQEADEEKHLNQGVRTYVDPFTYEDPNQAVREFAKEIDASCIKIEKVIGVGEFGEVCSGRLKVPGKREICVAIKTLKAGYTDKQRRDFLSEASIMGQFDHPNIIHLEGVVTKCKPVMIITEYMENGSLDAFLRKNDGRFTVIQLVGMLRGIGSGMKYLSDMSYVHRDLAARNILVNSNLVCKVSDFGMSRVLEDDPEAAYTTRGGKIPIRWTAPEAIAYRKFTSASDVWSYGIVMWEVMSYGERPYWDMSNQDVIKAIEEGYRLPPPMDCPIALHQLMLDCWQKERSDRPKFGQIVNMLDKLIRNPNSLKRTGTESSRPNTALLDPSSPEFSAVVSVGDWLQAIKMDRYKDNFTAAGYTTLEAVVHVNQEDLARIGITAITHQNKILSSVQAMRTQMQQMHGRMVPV

- residual activity [1]: 99.5%
- residual activity [2]: 102%
- residual activity [3]: 102%
- inhibition [4]: 15%
- residual activity [5]: 118%
- residual activity [6]: 95.5%
- residual activity [7]: 96.5%
- residual activity [8]: 107%
- residual activity [9]: 93.5%
- residual activity [10]: 105%
- residual activity [11]: 116%
- residual activity [12]: 104%
- residual activity [13]: 104%
- bioavailability [14]: 2%
- residual activity [15]: 128%
- residual activity [16]: 106%
- residual activity [17]: 101%
- concentration at 538 h [18]: 14.7 ng/mL
- concentration at 36 h [19]: < 1 ng/mL
- residual activity [20]: 102%
- residual activity [21]: 99.5%
SMILES: C[C@@H]1CCc2ncc(F)cc2[C@H]2CCCN2c2ccn3ncc(c3n2)C(=O)N1 [SELITRECTINIB]
- inhibition (BT-549): inactive
- inhibition (SCC-25): inactive
- Activity (NIH3T3): Active
- inhibition (SW579): inactive
- inhibition (KPL-1): inactive
- inhibition (SCaBER): inactive
- inhibition (DK-MG): inactive
- inhibition (T47D): inactive
- inhibition (SK-BR-3): inactive
